PubChem BioAssay (NCI)
Several values for one entry are separate records, joined by “and”; a condition that tells them apart may be missing. Equal entries are not always repeated.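 The compound was tested at five concentrations on cells cultured in 96-well plates, with a 48-hour exposure period. GI50: concentration for 50% inhibition of growth. Definition used: TGI = concentration required for complete inhibition of growth.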

Legend:
Assay in all cases: DTP human tumour cell line panel, 48 h
HT29 colon = tested on: HT29 colon
KM12 colon = tested on: KM12 colon
NCI-H23 lung = tested on: NCI-H23 lung
OVCAR-5 ovarian = tested on: OVCAR-5 ovarian
SF-268 CNS = tested on: SF-268 CNS
SF-295 CNS = tested on: SF-295 CNS
SK-MEL-28 melanoma = tested on: SK-MEL-28 melanoma
T-47D breast = tested on: T-47D breast
UACC-62 melanoma = tested on: UACC-62 melanoma
UO-31 renal = tested on: UO-31 renal

Compound	TGI (HT29 colon)	TGI (KM12 colon)	TGI (NCI-H23 lung)	TGI (OVCAR-5 ovarian)	TGI (SF-268 CNS)	TGI (SF-295 CNS)	TGI (SK-MEL-28 melanoma)	TGI (T-47D breast)	TGI (UACC-62 melanoma)	TGI (UO-31 renal)	GI50 (NCI-H23 lung)	GI50 (OVCAR-5 ovarian)	GI50 (SF-268 CNS)	GI50 (T-47D breast)	GI50 (UACC-62 melanoma)
Cc1cccc(NC(Nc2cccc(C)c2)=C(C(Cl)=C(Cl)Cl)[N+](=O)[O-])c1	> 54 µM	49.5 µM	23.6 µM	> 72.1 µM	30.6 µM	> 66.8 µM	41.2 µM	> 53 µM	40.6 µM	26.4 µM	–	–	–	–	–
CC(O)(C(=O)N(O)c1ccc(Cl)cc1)c1ccc(Cl)cc1 (stereo not given)	> 100 µM	> 100 µM	59.7 µM	> 100 µM	> 100 µM	92.4 µM	> 100 µM	> 100 µM	> 100 µM	42.4 µM	–	–	–	–	–
CNc1ccc2c(c1)Cc1ccccc1-2	> 100 µM	99.5 µM	> 100 µM	> 100 µM	> 100 µM	> 100 µM	> 100 µM	> 100 µM	89.7 µM	> 100 µM	–	–	–	–	–
COC(=O)C1=C(C(=O)OC)C2(C)CCC(=O)C1O2 (stereo not given)	> 10 µM	> 10 µM	> 10 µM	> 10 µM	> 10 µM	> 10 µM	> 10 µM	> 10 µM	> 10 µM	> 10 µM	–	–	–	–	–
Cc1ccc2c(c1)C(=O)/C(=C\c1ccc(Cl)cc1)CCS2(=O)=O	6.54 µM	7.71 µM	10.2 µM	> 42.5 µM	16.1 µM	17.9 µM	13.5 µM	9.4 µM	10.2 µM	9.02 µM	–	–	–	–	–
CN(C)c1nc(=NCc2ccccn2)ss1	> 10 µM	> 10 µM	> 10 µM	> 10 µM	> 10 µM	> 10 µM	> 10 µM	> 10 µM	> 10 µM	> 10 µM	–	–	–	–	–
CCOC(=O)c1[nH]c2nc(SC)nc(NC)c2c1N	> 100 µM	> 100 µM	> 100 µM	> 100 µM	> 100 µM	> 100 µM	> 100 µM	> 100 µM	> 100 µM	> 100 µM	–	–	–	–	–
Clc1cccc(C2ON=C(c3ccccc3)N2C23CC4CC(CC(C4)C2)C3)c1Cl (stereo not given)	> 10 µM	> 10 µM	> 10 µM	> 10 µM	> 10 µM	> 10 µM	> 10 µM	> 10 µM	> 10 µM	> 10 µM	–	–	–	–	–
O=[N+]([O-])c1ccc2nc3c(nc2c1)-c1c2ccccc2cc2cccc-3c12	> 100 µM	> 100 µM	24.5 µM	> 100 µM	> 100 µM	59.5 µM	> 100 µM	4.11 µM	39.2 µM	> 70.9 µM	–	–	–	–	–
O=S1(=O)c2ccccc2NC(=S)N1c1ccccc1	> 100 µM	> 100 µM	> 100 µM	> 100 µM	> 100 µM	> 100 µM	> 100 µM	> 100 µM	> 100 µM	> 100 µM	–	–	–	–	–
COCC(=O)OC1CCn2c1nc1c2C(=O)C(C)=C(NC(C)=O)C1=O (stereo not given)	29.5 µM	30.5 µM	22.5 µM	21.6 µM	9 µM and 22.4 µM	31.7 µM	28.6 µM	5.51 µM and 2.68 µM	4.16 µM and 7.52 µM	26.2 µM	3.23 µM	5.91 µM	3.07 µM	1.03 µM	2.08 µM
COc1ccc(CCCCl)c(C2=NCCc3ccccc32)c1	> 100 µM	> 100 µM	> 100 µM	> 100 µM	> 100 µM	> 100 µM	> 100 µM	> 100 µM	> 100 µM	> 100 µM	–	–	–	–	–
COP(=O)(CC(=O)C1OC(OCc2ccccc2)C(OCc2ccccc2)C(OCc2ccccc2)C1OCc1ccccc1)OC (stereo not given)	24.2 µM	37.6 µM	> 100 µM	> 100 µM	> 100 µM	> 100 µM	> 100 µM	41.9 µM	17.8 µM	7.1 µM	–	–	–	–	–
CCOC(=O)c1ccc(C(=O)/C(C(=O)OC(C)(C)C)=C2\CCCN2C)n1C	> 100 µM	> 100 µM	> 100 µM	> 100 µM	> 100 µM	> 100 µM	> 100 µM	> 100 µM	> 100 µM	> 100 µM	–	–	–	–	–
CC(C)(C)c1ccc2c(c1)OCc1n[nH]c(n1)COc1cc(C(C)(C)C)ccc1OCCOCCO2	10.3 µM	15.1 µM	12.5 µM	22.6 µM	17.3 µM	12.5 µM	9.52 µM	12.4 µM	10.4 µM	13.1 µM	–	–	–	–	–
CCOC(=O)Cc1nn2c(=O)cc(C)nc2s1	> 100 µM	> 100 µM	> 100 µM	> 100 µM	> 100 µM	> 100 µM	> 100 µM	> 100 µM	> 100 µM	> 100 µM	–	–	–	–	–
CC1=NC(C)(C)N(O)C1(C)C	> 100 µM	> 100 µM	> 100 µM	> 100 µM	> 100 µM	> 100 µM	> 100 µM	> 100 µM	> 100 µM	> 100 µM	–	–	–	–	–
COc1ccc(/C=N/Nc2nc3ccccc3c(=O)n2-c2ccccc2)c(OCc2ccccc2)c1	> 100 µM	> 100 µM	> 100 µM	> 100 µM	> 100 µM	> 100 µM	> 100 µM	> 100 µM	> 100 µM	> 100 µM	–	–	–	–	–
CN1c2ccccc2C(=O)NC12CCN(CC1COc3ccccc3O1)CC2 (stereo not given)	> 100 µM	> 100 µM	> 100 µM	> 100 µM	> 100 µM	> 100 µM	> 100 µM	98.8 µM	> 100 µM	> 100 µM	–	–	–	–	–
